Experiments:
[1] = Ocular passage / ocular bioavailability after instillation of eye drops; type: in vivo
Protocol: Les biodisponibilités oculaires des deux formes pharmaceutiques sont équivalentes : le passage obtenu avec la solution à 0,142 % d'indométacine (du lysinate d'indométacine) est similaire à celui obtenu avec la suspension à 1 % (INDOCID®). Cette dernière constatation permet d'affirmer que le passage des collyres à travers les différentes barrières oculaires s'effectue bien par la fraction soluble et non par endocytose de microparticules.
Il faut noter également qu'au temps de prélèvement de 2 h les concentrations d'indométacine mesurées dans l'oeil traité par la solution de lysinate d'indométacine à 0,142 % d'indométacine sont supérieures à celles mesurées dans l'oeil traité par la suspension à 1 % d'indométacine; cela peut être dû à une élimination plus rapide de la forme suspension par le fluide lacrymal en raison de l'irritation oculaire provoquée par la taille des particules.
Elle augmente ensuite régulièrement pour atteindre sa valeur maximale environ 30 minutes après l'instillation (3 à 5 % de la dose instillée) et diminue finalement.

[2] = Solubility in solvents (physico-chemical characters); type: physicochemical
From the text: Les données des études spectrales (IR, UV, RNM) sont conformes à la structure définie.

[3] = Stability of the isolated salt (storage; dry heat sterilisation of the powder); type: physicochemical; conditions: poudre
From the text: Dans un premier temps, la stabilité du lysinate d'indométacine en fonction de la température a été prouvée et les conditions de température et de durée utilisées pour la stérilisation ont été définis. Dans un deuxième temps, une étude microbiologique a permis de vérifier l'efficacité de la méthode.

Row | Structure (SMILES) | concentration de l'indométacine dans l'humeur aqueuse ([1]; 10 minutes après l'instillation) | Tmax ([1]; in vivo, topical or ocular, humeur aqueuse, read-out: time after instillation to reach valeur maximale dans l'humeur aqueuse (converted)) | solubilité ([2]; dans l'acétone) | solubilité ([2]; dans l'acétonitrile) | solubilité ([2]; dans l'eau) | solubilité ([2]; dans l'éthanol) | solubilité ([2]; dans l'éther) | solubilité ([2]; dans le chloroforme) | solubilité ([2]; dans le dichlorométhane) | solubilité ([2]; dans le méthanol) | passage oculaire (biodisponibilité oculaire) ([1]; solution à 0,142 % d'indométacine, compared with suspension à 1 % (INDOCID®)) | concentrations d'indométacine mesurées dans l'oeil traité ([1]; temps de prélèvement de 2 h, solution à 0,142 % d'indométacine compared with suspension à 1 % d'indométacine) | stabilité dans le temps ([3]; conditions classiques de conservation) | stabilité à la stérilisation par la chaleur sèche ([3]; température supérieure à 170°C)
1 | COc1ccc2c(c1)c(CC(=O)O)c(C)n2C(=O)c1ccc(Cl)cc1 [indométacine, reference compound] | pratiquement nulle | ~30 min | – | – | – | – | – | – | – | – | – | – | – | –
2 | COc1ccc2c(c1)c(CC(=O)O)c(C)n2C(=O)c1ccc(Cl)cc1 [lysinate d'indométacine] | – | – | pratiquement insoluble | totalement insoluble | soluble | totalement insoluble | totalement insoluble | pratiquement insoluble | pratiquement insoluble | soluble | similaire | supérieures | stables dans le temps | sans être dégradé
